In ChEMBL document CHEMBL5506024, “Multitarget μ-Opioid Receptor Agonists─Neuropeptide FF Receptor Antagonists Induce Potent Antinociception with Reduced Adverse Side Effects” (J Med Chem, 2024):
The source made the active and inactive calls. Numbered stars: 1 amine (or outer) side, 2 acyl side, 3 side chain; on linkers, the order of the positions; unused ones are H or OH. Square brackets hold non-standard residues; d marks the D form. Peptide text beside a SMILES is read from it. Nva(5-(4-Bn-piperidin-1-yl)) = N[C@@H](CCCN1CCC(Cc2ccccc2)CC1)C(=O)O; X1 = O=C1[C@@H](N[*:1])Cc2ccccc2CN1CCC(=O)[*:2]; Dmt = Cc1cc(O)cc(C)c1C[C@H](N)C(=O)O

How the values were obtained:
[1] = Induction of motor coordination impairment in C57BL/6 mouse at 20 mg/kg, sc by rotarod assay; format: toxicity, organism-based; conditions: in vivo
[2] = molecular target: T1, Mu-type opioid receptor (Homo sapiens, UniProt P35372); experiment: Agonist activity at human MOP expressed in HEK293 cells coexpressing GloSensor-20F assessed as inhibition of forskolin-induced cAMP accumulation relative to control; format: functional, cell-based; conditions: filed as agonist
T1 sequence (P35372 whole entry): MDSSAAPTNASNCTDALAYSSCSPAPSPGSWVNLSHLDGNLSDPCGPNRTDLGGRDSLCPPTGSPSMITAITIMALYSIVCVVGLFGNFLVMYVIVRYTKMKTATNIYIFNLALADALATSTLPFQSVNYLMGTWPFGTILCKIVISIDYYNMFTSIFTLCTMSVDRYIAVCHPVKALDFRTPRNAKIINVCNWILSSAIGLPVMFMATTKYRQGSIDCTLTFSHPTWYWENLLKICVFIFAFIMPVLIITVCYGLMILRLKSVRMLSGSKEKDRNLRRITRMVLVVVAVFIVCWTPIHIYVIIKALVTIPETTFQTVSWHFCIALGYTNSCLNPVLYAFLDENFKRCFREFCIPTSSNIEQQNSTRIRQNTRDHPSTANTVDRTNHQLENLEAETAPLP

[3] = molecular target: T1, Mu-type opioid receptor; experiment: Agonist activity at human Rluc8-tagged MOP expressed in HEK293 cells coexpressing eYFP-tagged beta-arrestin-2 assessed as beta-arrestin-2 recruitment incubated for 5 mins by luminometer analysis; format: functional, cell-based; conditions: hek293
[4] = molecular target: T2, Neuropeptide FF receptor 1 (Homo sapiens, UniProt Q9GZQ6); experiment: Displacement of [125I]-1DMeNPFF from human NPFFR1 expressed in CHO cell membrane at 0.5 uM incubated for 1 hr by Topcount counting method relative to control; format: cell membranes
T2 sequence (Q9GZQ6 whole entry): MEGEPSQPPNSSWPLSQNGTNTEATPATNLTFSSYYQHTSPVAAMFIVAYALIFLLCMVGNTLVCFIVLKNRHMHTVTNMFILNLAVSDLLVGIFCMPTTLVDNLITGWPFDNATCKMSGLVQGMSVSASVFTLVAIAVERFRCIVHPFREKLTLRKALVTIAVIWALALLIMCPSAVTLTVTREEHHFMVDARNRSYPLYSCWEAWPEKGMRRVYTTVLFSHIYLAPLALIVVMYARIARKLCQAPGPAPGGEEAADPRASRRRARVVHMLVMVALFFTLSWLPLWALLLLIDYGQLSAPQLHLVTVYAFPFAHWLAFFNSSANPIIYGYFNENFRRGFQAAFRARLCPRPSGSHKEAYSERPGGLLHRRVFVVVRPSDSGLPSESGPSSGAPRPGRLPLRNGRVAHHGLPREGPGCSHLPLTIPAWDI

[5] = molecular target: T2, Neuropeptide FF receptor 1; experiment: Antagonist activity at human NPFFR1 expressed in CHO cell membrane assessed as inhibition of NPVF induced cAMP response at 5 uM incubated for 1 hr by Topcount counting method relative to control; format: functional, cell membranes; design: scale not given: the % may be the effect or the level left
[6] = molecular target: T3, Neuropeptide FF receptor 2 (Homo sapiens, UniProt Q9Y5X5); experiment: Displacement of [125I]-1DMeNPFF from human NPFFR2 expressed in CHO cell membrane at 0.05 uM incubated for 1 hr by Topcount counting method relative to control; format: cell membranes; conditions: filed as antagonist
T3 sequence (Q9Y5X5 whole entry): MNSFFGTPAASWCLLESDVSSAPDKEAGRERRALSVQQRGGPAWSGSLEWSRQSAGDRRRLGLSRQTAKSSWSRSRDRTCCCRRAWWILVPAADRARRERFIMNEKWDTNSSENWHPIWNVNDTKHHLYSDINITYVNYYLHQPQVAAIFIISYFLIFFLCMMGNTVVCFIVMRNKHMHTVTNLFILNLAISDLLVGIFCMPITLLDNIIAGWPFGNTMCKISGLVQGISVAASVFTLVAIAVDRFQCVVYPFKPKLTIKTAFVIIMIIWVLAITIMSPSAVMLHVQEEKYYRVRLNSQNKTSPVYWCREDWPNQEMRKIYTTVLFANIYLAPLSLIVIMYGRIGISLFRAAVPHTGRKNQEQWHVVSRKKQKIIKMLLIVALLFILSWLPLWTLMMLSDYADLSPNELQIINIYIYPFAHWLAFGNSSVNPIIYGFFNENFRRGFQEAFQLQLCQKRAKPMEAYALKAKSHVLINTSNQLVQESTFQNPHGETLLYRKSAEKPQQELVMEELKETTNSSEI

[7] = molecular target: T3, Neuropeptide FF receptor 2; experiment: Antagonist activity at human NPFFR2 expressed in CHO cell membrane assessed as inhibition of NPVF induced cAMP response at 5 uM incubated for 1 hr by Topcount counting method relative to control; format: functional, cell membranes; design: scale not given: the % may be the effect or the level left; conditions: filed as antagonist
[8] = molecular target: T2, Neuropeptide FF receptor 1; experiment: Displacement of [125I]-1DMeNPFF from human NPFFR1 expressed in CHO cell membrane incubated for 1 hr by Topcount counting method; format: cell membranes
[9] = molecular target: T2, Neuropeptide FF receptor 1; experiment: Antagonist potency at human NPFFR1 expressed in CHO cell membrane assessed as inhibition of NPVF induced cAMP response incubated for 1 hr by Topcount counting method; format: functional, cell membranes; conditions: read-out: pA2 (converted)
[10] = molecular target: T3, Neuropeptide FF receptor 2; experiment: Displacement of [125I]-1DMeNPFF from human NPFFR2 expressed in CHO cell membrane incubated for 1 hr by Topcount counting method; format: cell membranes
[11] = molecular target: T3, Neuropeptide FF receptor 2; experiment: Antagonist potency at human NPFFR2 expressed in CHO cell membrane assessed as inhibition of NPVF induced cAMP response incubated for 1 hr by Topcount counting method; format: functional, cell membranes; conditions: read-out: pA2 (converted)
[12] = molecular target: Delta-type opioid receptor (Homo sapiens) (UniProt P41143); experiment: Agonist activity at human DOP expressed in HEK293 cells assessed as inhibition of forskolin-induced cAMP accumulation; format: functional, cell-based; conditions: filed as agonist
Delta-type opioid receptor (Homo sapiens), sequence (P41143 whole entry): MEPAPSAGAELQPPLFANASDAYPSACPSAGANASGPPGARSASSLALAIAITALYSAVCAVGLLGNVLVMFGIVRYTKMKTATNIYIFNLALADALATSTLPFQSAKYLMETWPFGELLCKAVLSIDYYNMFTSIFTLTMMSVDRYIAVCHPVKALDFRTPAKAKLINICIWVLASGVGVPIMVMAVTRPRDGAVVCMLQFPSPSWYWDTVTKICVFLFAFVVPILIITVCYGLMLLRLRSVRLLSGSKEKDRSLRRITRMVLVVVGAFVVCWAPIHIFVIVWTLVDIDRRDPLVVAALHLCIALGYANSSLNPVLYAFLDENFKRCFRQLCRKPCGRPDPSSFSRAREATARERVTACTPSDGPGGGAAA

[13] = molecular target: Kappa-type opioid receptor (Homo sapiens, UniProt P41145); experiment: Partial agonist activity at human KOR expressed in HEK293 cells assessed as forskolin-induced cAMP accumulation in presence of IBMX; format: functional, cell-based; conditions: filed as partial agonist
Kappa-type opioid receptor, sequence (P41145 whole entry): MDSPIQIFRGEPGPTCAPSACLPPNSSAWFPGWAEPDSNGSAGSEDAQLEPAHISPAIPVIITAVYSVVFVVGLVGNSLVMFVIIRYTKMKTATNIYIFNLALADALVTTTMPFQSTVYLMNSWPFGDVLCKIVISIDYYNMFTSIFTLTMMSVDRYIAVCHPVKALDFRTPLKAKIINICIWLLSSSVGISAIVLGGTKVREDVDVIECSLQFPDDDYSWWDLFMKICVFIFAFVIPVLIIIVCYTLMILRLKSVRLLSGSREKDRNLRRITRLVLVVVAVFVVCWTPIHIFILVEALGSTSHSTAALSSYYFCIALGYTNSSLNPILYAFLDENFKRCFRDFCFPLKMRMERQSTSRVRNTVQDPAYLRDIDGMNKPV

[14] = molecular target: Nociceptin receptor (Homo sapiens) (UniProt P41146); experiment: Partial agonist activity at human NOR expressed in HEK293 cells assessed as forskolin-induced cAMP accumulation in presence of IBMX; format: functional, cell-based; conditions: filed as partial agonist
Nociceptin receptor (Homo sapiens), sequence (P41146 whole entry): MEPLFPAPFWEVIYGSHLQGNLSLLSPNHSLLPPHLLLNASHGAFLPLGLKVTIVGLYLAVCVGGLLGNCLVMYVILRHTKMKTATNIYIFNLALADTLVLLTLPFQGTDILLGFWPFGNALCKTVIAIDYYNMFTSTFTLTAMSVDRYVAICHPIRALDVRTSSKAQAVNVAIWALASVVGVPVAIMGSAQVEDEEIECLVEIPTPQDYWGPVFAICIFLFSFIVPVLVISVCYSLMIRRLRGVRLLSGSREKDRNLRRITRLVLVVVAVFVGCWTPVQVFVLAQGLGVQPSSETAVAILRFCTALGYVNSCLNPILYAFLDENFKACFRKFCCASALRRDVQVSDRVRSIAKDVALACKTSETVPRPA

[15] = molecular target: T4, Prolactin-releasing peptide receptor (Homo sapiens) (UniProt P49683); experiment: Agonist activity at human GPR10 expressed in CHO cells assessed as intracellular calcium release upto 10 uM by Fluo-4 AM dye based calcium mobilization assay; format: functional, cell-based
T4 sequence (whole entry): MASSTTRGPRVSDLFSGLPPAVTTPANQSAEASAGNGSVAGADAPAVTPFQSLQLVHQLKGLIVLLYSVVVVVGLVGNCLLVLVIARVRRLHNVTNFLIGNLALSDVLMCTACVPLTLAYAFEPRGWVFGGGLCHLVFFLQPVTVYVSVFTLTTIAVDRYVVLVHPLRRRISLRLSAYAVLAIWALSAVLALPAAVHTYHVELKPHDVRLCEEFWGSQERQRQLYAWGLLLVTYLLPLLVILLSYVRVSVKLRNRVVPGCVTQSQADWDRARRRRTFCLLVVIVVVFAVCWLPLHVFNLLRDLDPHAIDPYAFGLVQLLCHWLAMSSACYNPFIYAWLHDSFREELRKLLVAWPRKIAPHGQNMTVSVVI

[16] = molecular target: KiSS-1 receptor (Homo sapiens) (UniProt Q969F8); experiment: Agonist activity at human GPR54 expressed in CHO cells assessed as intracellular calcium release upto 10 uM by Fluo-4 AM dye based calcium mobilization assay; format: functional, cell-based
KiSS-1 receptor (Homo sapiens), sequence (Q969F8 whole entry): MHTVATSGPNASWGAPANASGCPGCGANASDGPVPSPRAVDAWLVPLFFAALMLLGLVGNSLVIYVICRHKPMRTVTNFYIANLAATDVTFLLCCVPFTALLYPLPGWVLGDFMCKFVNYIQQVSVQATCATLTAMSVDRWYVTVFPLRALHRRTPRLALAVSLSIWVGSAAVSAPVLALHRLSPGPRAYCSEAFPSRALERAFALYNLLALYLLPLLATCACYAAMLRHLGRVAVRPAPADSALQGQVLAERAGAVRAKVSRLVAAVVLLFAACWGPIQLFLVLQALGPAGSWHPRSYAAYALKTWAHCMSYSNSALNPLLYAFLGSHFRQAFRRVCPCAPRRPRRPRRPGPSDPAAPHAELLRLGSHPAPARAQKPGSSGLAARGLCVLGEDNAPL

[17] = molecular target: T5, Pyroglutamylated RF-amide peptide receptor (Homo sapiens) (UniProt Q96P65); experiment: Agonist activity at human GPR103 expressed in CHO cells assessed as intracellular calcium release upto 10 uM by Fluo-4 AM dye based calcium mobilization assay; format: functional, cell-based
T5 sequence (whole entry): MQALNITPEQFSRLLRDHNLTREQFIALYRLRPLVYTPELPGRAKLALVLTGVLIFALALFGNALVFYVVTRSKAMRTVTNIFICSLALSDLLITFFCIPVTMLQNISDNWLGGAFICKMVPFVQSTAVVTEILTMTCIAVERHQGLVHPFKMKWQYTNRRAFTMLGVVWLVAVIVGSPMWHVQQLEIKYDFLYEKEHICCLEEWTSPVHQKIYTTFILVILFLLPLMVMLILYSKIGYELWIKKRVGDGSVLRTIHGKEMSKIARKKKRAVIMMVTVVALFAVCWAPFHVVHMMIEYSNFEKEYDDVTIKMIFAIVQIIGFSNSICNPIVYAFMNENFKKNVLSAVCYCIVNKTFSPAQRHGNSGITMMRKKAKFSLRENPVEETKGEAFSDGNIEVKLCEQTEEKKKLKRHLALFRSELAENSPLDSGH

[18] = molecular target: T4, Prolactin-releasing peptide receptor (Homo sapiens); experiment: Antagonist activity at human GPR10 expressed in CHO cells assessed as intracellular calcium release upto 10 uM by Fluo-4 AM dye based calcium mobilization assay; format: functional, cell-based
[19] = molecular target: KiSS-1 receptor (Homo sapiens) (UniProt Q969F8); experiment: Antagonist activity at human GPR54 expressed in CHO cells assessed as intracellular calcium release upto 10 uM by Fluo-4 AM dye based calcium mobilization assay; format: functional, cell-based
[20] = molecular target: T5, Pyroglutamylated RF-amide peptide receptor (Homo sapiens); experiment: Antagonist activity at human GPR103 expressed in CHO cells assessed as intracellular calcium release upto 10 uM by Fluo-4 AM dye based calcium mobilization assay; format: functional, cell-based
[21] = Cmax in mouse at 10 mg/kg, sc measured upto 24 hrs by LC-MS/MS analysis; format: ADME, organism-based; conditions: in vivo
[22] = Tmax in mouse at 10 mg/kg, sc measured upto 24 hrs by LC-MS/MS analysis; format: ADME, organism-based; conditions: in vivo
[23] = Half life in mouse at 10 mg/kg, sc measured upto 24 hrs by LC-MS/MS analysis; format: ADME, organism-based; conditions: in vivo
[24] = Drug concentration in mouse plasma at 10 mg/kg, sc measured after 2 hrs by LC-MS/MS analysis; format: ADME, organism-based
[25] = tested on: Mus musculus; experiment: Antinociceptive activity in mouse at 2.5 to 10 mg/kg, sc measured after 6 hrs by tail immersion test; format: functional, organism-based; conditions: dose 2.5-10 mg/kg
[26] = molecular target: T1, Mu-type opioid receptor; experiment: Agonist activity at human MOP expressed in HEK293 cells coexpressing GloSensor-20F assessed as inhibition of forskolin-induced cAMP accumulation; format: functional, cell-based
[27] = molecular target: Nociceptin receptor (Homo sapiens) (UniProt P41146); experiment: Agonist activity at human NOR expressed in HEK293 cells assessed as forskolin-induced cAMP accumulation; format: functional, cell-based
[28] = Drug metabolism in human plasma assessed as H-Dmt-D-Pro-OH formation measured upto 270 mins by LC-MS analysis; format: ADME, cell-free; conditions: 4.5 h
[29] = Drug metabolism in human plasma assessed as H-Aba-betaAla-Bpa-Phe-NH2 formation measured upto 270 mins by LC-MS analysis; format: ADME, cell-free; conditions: 4.5 h
[30] = tested on: Mus musculus; experiment: Antinociceptive activity in mouse at 10 mg/kg, sc measured after 6 hrs in presence of naloxone methiodide by tail immersion test; format: functional, organism-based
[31] = tested on: Mus musculus; experiment: Antinociceptive activity in mouse at 4.2 umol/kg, sc measured after 6 hrs in presence of naloxone methiodide by tail immersion test; format: functional, organism-based; conditions: dose 4.2 µmol/kg
[32] = tested on: Mus musculus; experiment: Antinociceptive activity in mouse at 10 mg/kg, sc administered daily and measured on day 8; format: functional, organism-based
[33] = tested on: Mus musculus; experiment: Antinociceptive activity in mouse assessed as basal nociceptive threshold at 10 mg/kg, sc administered daily and measured on day 2 to 7; format: functional, organism-based
[34] = Induction of naltrexone-precipitated withdrawal syndrome in sc dosed C57BL/6N mouse assessed as somatic signs administered for 8 days followed by naltrexone addition on day 9 after 2 hrs post last dose and measured after 30 mins; format: toxicity, organism-based; conditions: in vivo, 216.5 h, time 12990 min
[35] = Induction of naltrexone-precipitated withdrawal syndrome in sc dosed C57BL/6N mouse assessed as vegetative signs administered for 8 days followed by naltrexone addition on day 9 after 2 hrs post last dose and measured after 30 mins; format: toxicity, organism-based; conditions: in vivo, 216.5 h, time 12990 min
[36] = Toxicity in sc dosed C57BL/6N mouse assessed as induction of respiratory depression by measuring decrease in pulmonary rate by plethysmography; format: organism-based; conditions: in vivo

| SMILES | Emax [2] | EC50 [3] | Activity [4] | Activity [6] | Activity [7] | Ki [8] | Kb [9] | Ki [10] | Kb [11] | Activity [12] | Activity [13] | Activity [15] | Activity [16] | Activity [17] | Activity [18] | Activity [19] | Activity [20] | Cmax [21] | Tmax [22] | half-life [23] | other results |
| --- | --- | --- | --- | --- | --- | --- | --- | --- | --- | --- | --- | --- | --- | --- | --- | --- | --- | --- | --- | --- | --- |
| CN(C)CCC=C1c2ccccc2CCc2ccccc21 [AMITRIPTYLINE] | – | – | – | – | – | – | – | – | – | – | – | – | – | – | – | – | – | – | – | – | Activity [1]: Toxic |
| Cc1cc(O)cc(C)c1C[C@H](N)C(=O)N(C)[C@H](C)C(=O)N[C@H]1Cc2c(ccc3ccccc23)CN(CC(=O)N[C@@H](CCCN2CCC(Cc3ccccc3)CC2)C(=O)N[C@@H](Cc2ccccc2)C(N)=O)C1=O | 73% | Not Active | 22% | 51% | 80% | 1170 nM | 5890 nM | 54 nM | 102 nM | Active | Active | inactive | inactive | inactive | inactive | inactive | inactive | 446 nM | 1.83 h | 3.88 h | Activity [5]: 3%; Activity [14]: Active; concentration at 2 h [24]: 474 nM; Activity [25]: Active |
| Cc1cc(O)cc(C)c1C[C@H](N)C(=O)N1CCC[C@@H]1C(=O)N[C@H]1Cc2ccccc2CN(CCC(=O)N[C@@H](CCCN2CCC(Cc3ccccc3)CC2)C(=O)N[C@@H](Cc2ccccc2)C(N)=O)C1=O (H-[Dmt][dP][X1][Nva(5-(4-Bn-piperidin-1-yl))]F-NH2) | 50% | Not Active | 33% | 72% | 46% | 1190 nM | 6310 nM | 29 nM | 380 nM | Active | Active | inactive | inactive | inactive | inactive | inactive | inactive | 345 nM | 0.139 h | 0.28 h | EC50 [26]: 8 nM; Activity ([5]; filed as antagonist): 75%; Activity [27]: inactive; concentration at 2 h [24]: 10.7 nM; Drug metabolism [28]: Metabolite_Detected; Drug metabolism [29]: Metabolite_Detected; Activity [25]: Active |
| CN1CC[C@]23c4c5ccc(O)c4O[C@H]2[C@@H](O)C=C[C@H]3[C@H]1C5 [MORPHINE] | – | – | – | – | – | – | – | – | – | – | – | – | – | – | – | – | – | – | – | – | Activity [30]: inactive; Activity [31]: inactive; Activity [32]: inactive; Activity [33]: inactive; Activity [34]: Toxic; Activity [35]: Toxic; Activity [36]: Dose-Dependent Effect |
